Publication PMC7238232, “Acamprosate Is a Substrate of the Human Organic Anion Transporter (OAT) 1 without OAT3 Inhibitory Properties: Implications for Renal Acamprosate Secretion and Drug–Drug Interactions” (Pharmaceutics, 2020)
“And” between values parts separate entries of the source, which are not always exact repeats. Equal values may be shown once. Read-outs that look alike come from different tables or passages of the source. Each block holds one molecule with its values, some of them ahead of it.

What was measured:
HEK293-Flp-In OAT1 cells = assay: CellTiter-Glo cell viability assay, OAT1 transfected cells
HEK293-Flp-In OAT3 cells = assay: CellTiter-Glo cell viability assay, OAT3 transfected cells
HEK293-Flp-In mock cells [1] = assay: CellTiter-Glo cell viability assay, mock cells
human OAT1 = conditions: cited from earlier work; for Km: read-out: Km of other OAT1 substrates
HEK293-Flp-In mock cells [2] = assay: Control uptake studies in HEK293-Flp-In mock cells; conditions: for effect on uptake of [14C]-PAH in mock cells: 9.5 µM [14C]-PAH, 200 µM PAH, 300 µM or 0.02–1022 µM probenecid, acamprosate; for effect on uptake of [3H]-E3S in mock cells: 0.02 µM [3H]-E3S, 200 µM E3S, 300 µM or 0.2–1022 µM probenecid, 10,000 µM acamprosate, Lab. 2
Procedure: All uptake experiments were performed on 24- or 96-well plates. Before the experiment initiation, the cells were incubated with either 500 or 200 µL∙well^−1 prewarmed buffer for 10 min at 37 °C in a microplate incubator (VWR International AB, Stockholm, Sweden), without shaking. […] The experiment was stopped by adding 200 µL∙well^−1 of ice-cold buffer and subsequent rinse three times with the same amount of buffer. […] A total of 50 µL of cell lysate from each well was transferred to 96-well Luma plates bottom coated with dry scintillant. Then, 2∙20 µL of each donor and three 50 µL blank samples were applied on the same plate. The dry plates were covered with transparent seals and analyzed using a TopCount NXT Microplate Scintillation and Luminescence Counter (Perkin Elmer, Waltham, MA, USA). The remaining 20 µL cell lysate was neutralized with 20 µL 1M HCl∙well^−1, samples were mixed thoroughly and the total protein content in all the wells was measured using a BCA protein assay kit, microplate method, and a Tecan Safire II fluorometer (Tecan Austria GmbH, Grödig, Austria). […] The total protein content was measured by using a BCA protein assay kit and a FLUOStar Omega fluorescence microplate reader (BMG Labtech, Ortenberg, Germany). The protein assay for the OAT3 and mock cell lines was performed in four independent wells of each cell line, seeded and treated in the same manner as the cells used in the uptake assay. For all the OAT1, OAT3, and mock isotope uptake studies, the radiolabelled tracer accumulation (pmol) in each well was calculated by first determining the activity of the isotope (DPM∙pmol^−1) from the radioactivity (DPM) of the donor sample divided by the theoretical isotope concentration (pmol), then dividing the total radioactivity in the well (DPM) to the specific activity of the isotope (DPM∙pmol^−1).

human kidney slices = tested on: human kidney slices; set-up: method as in PMID 17255469; conditions: read-out: Km of PAH; cited from earlier work
OAT3 = biological target: T1, OAT3 (Homo sapiens, UniProt Q8TCC7); assay: [3H]-E3S uptake and its inhibition in HEK293-Flp-In OAT3 cells; assay type: cell-based; conditions: 0.02 µM [3H]-E3S; 200 µM E3S, 300 µM probenecid, 1000 or 10,000 µM acamprosate; Lab. 2
T1 sequence (Q8TCC7 1-542): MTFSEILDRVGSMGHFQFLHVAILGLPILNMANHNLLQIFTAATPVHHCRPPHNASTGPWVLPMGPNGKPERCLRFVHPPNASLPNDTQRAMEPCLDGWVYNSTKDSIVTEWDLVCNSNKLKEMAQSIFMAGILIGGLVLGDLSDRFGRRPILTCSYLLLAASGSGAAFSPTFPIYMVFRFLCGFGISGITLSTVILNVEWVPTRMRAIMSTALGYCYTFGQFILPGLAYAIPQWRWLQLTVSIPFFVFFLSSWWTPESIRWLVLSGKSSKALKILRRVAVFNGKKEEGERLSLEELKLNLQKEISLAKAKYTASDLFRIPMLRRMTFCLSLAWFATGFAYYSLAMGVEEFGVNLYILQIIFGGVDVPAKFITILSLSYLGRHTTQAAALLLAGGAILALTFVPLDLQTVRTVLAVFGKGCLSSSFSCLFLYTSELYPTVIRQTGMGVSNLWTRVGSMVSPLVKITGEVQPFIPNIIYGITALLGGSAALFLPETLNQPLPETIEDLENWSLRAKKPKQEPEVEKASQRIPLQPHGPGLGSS
Procedure: All uptake experiments were performed on 24- or 96-well plates. Before the experiment initiation, the cells were incubated with either 500 or 200 µL∙well^−1 prewarmed buffer for 10 min at 37 °C in a microplate incubator (VWR International AB, Stockholm, Sweden), without shaking. […] The experiment was stopped by adding 200 µL∙well^−1 of ice-cold buffer and subsequent rinse three times with the same amount of buffer. In Lab. 1 the sample analysis of the OAT1/OAT3/mock studies consisted in removing the rinsing buffer and lysing the cells with 70 µL 1M NaOH, following by incubation for 60 min at 37 °C and 100 rpm. A total of 50 µL of cell lysate from each well was transferred to 96-well Luma plates bottom coated with dry scintillant. Then, 2∙20 µL of each donor and three 50 µL blank samples were applied on the same plate. The dry plates were covered with transparent seals and analyzed using a TopCount NXT Microplate Scintillation and Luminescence Counter (Perkin Elmer, Waltham, MA, USA). The remaining 20 µL cell lysate was neutralized with 20 µL 1M HCl∙well^−1, samples were mixed thoroughly and the total protein content in all the wells was measured using a BCA protein assay kit, microplate method, and a Tecan Safire II fluorometer (Tecan Austria GmbH, Grödig, Austria). For the experiments in Lab. 2, the cells were lysed by adding 200 µL 0.1% Triton X-100 and incubated for 5 min at 37 °C and 100 rpm. […] The total protein content was measured by using a BCA protein assay kit and a FLUOStar Omega fluorescence microplate reader (BMG Labtech, Ortenberg, Germany). The protein assay for the OAT3 and mock cell lines was performed in four independent wells of each cell line, seeded and treated in the same manner as the cells used in the uptake assay. For all the OAT1, OAT3, and mock isotope uptake studies, the radiolabelled tracer accumulation (pmol) in each well was calculated by first determining the activity of the isotope (DPM∙pmol^−1) from the radioactivity (DPM) of the donor sample divided by the theoretical isotope concentration (pmol), then dividing the total radioactivity in the well (DPM) to the specific activity of the isotope (DPM∙pmol^−1).
A range of preincubation solutions was prepared at the same concentrations of acamprosate applied in the inhibition assays. Acamprosate was dissolved in HBSS buffered with 10 mM HEPES and the pH was adjusted to 7.40 ± 0.01. The preincubation solutions were prewarmed to 37 °C and applied to the corresponding cells after removing the cell growth medium. The preincubation was done for 3 h, at 37 °C, without shaking. After the preincubation, the solutions were removed, and the inhibition experiment was performed as described in the Section 2.6.
The obtained intracellular amounts (pmol) were normalized to the assay time (min) and cell surface area (cm^2) or protein amount (mg protein) to obtain a term hereafter referred to as uptake rate. […] Assuming competitive interaction, equilibrium dissociation constants, Ki, were calculated from the IC50 value for each substrate/inhibitor pair, at substrate Km, using the Cheng–Prusoff equation [24].

OAT = tested on: OAT; set-up: method as in PMID 23085876; conditions: OAT mediated DDI by probenecid, compared to control; cited from earlier work
[3] = probenecid, oral, cited from earlier work
[4] = Clinical pharmacokinetics in humans (literature); conditions: probenecid, oral, calculated from Cmax and fu
[5] = substrate: CC(=O)NCCCS(=O)(=O)O; assay: Acamprosate intracellular uptake and inhibition of uptake in HEK293-Flp-In OAT1 cells (LC/MS-MS); assay type: cell-based, human; conditions: other: HEK293-Flp-In OAT1 cells, 10 min, pH 7.4, Lab. 1
[6] = 3 h, 1000 µM p-aminohippuric acid, 200 µM estrone-3-sulfate (Figure 8A)

Molecule: CCCCCCCCCCCCOS(=O)(=O)[O-].[Na+] [SDS, sodium dodecyl sulfate]
decrease in cell viability (HEK293-Flp-In OAT1 cells; 0.5% SDS, 3 h incubation): approximately 50% | decrease in cell viability (HEK293-Flp-In OAT3 cells; 0.5% SDS, 3 h incubation): more than 95% | decrease in cell viability (HEK293-Flp-In mock cells [1]; 0.5% SDS, 3 h incubation): more than 95%

Molecule: CC(=O)Nc1ccc(O)cc1 [acetaminophen]
IC50 (human OAT1; read-out: IC50 of other drug substances inhibiting OAT1): 639 µM

Molecule: Nc1nc2c(ncn2COCCO)c(=O)[nH]1 [acyclovir]
Km (human OAT1): 342 µM

Molecule: O=S(=O)(O)CCSSCCS(=O)(=O)O [dimesna]
Km (human OAT1): 636 µM

Molecule: Nc1nc(O)c2ncn(COC(CO)CO)c2n1 [ganciclovir]
Km (human OAT1): 896 µM

Molecule: CN(Cc1cnc2nc(N)nc(N)c2n1)c1ccc(C(=O)N[C@@H](CCC(=O)O)C(=O)O)cc1 [methotrexate]
Km (human OAT1): 554 to 724 µM

Molecule: Nc1ccc(C(=O)NCC(=O)O)cc1 [p-aminohippuric acid]
effect on cell viability (HEK293-Flp-In OAT1 cells; 3 h, 1000 µM p-aminohippuric acid, 200 µM estrone-3-sulfate (Figure 8B)): did not decrease cell viability | effect on uptake of [14C]-PAH in mock cells (HEK293-Flp-In mock cells [2]; Lab. 1): no effect | saturability of dose-dependent substrate uptake in mock cells (HEK293-Flp-In mock cells [2]; same substrate concentrations as in transfected cells, acamprosate 0.33–3300 µM): not saturable | effect on cell viability (HEK293-Flp-In OAT3 cells; [6]): did not decrease cell viability | Km (human kidney slices): ~39 µM | effect on cell viability (HEK293-Flp-In mock cells [1]; [6]): did not decrease cell viability

effect on uptake of [3H]-E3S in OAT3 expressing cells (OAT3): significantly decreased | Cmax,u ([4]; 500 mg): 8.66 ± 2.09 µM | Cmax,u ([4]; 1000 mg): 26.83 ± 10.37 µM | Cmax,u ([4]; 2000 mg): 88.53 ± 28.24 µM
Molecule: CCCN(CCC)S(=O)(=O)c1ccc(C(=O)O)cc1 [probenecid]
change in AUC of other inhibited drugs (OAT): 1.1–2.4 fold | change in CLR of other inhibited drugs (OAT): 0.3–0.7 fold | effect on uptake of [3H]-E3S in mock cells (HEK293-Flp-In mock cells [2]): no inhibition | effect on uptake of [3H]-E3S in mock cells (HEK293-Flp-In mock cells [2]; listed as Probenecid): no inhibitory effect | effect on uptake of [14C]-PAH in mock cells (HEK293-Flp-In mock cells [2]; Lab. 1): no effect | effect on uptake of [14C]-PAH in mock cells (HEK293-Flp-In mock cells [2]; Lab. 1, listed as Probenecid): no inhibitory effect | effect on acamprosate uptake in mock cells (HEK293-Flp-In mock cells [2]; 200 µM acamprosate, 0.02–1022 µM probenecid, Lab. 1): no inhibitory effect | Cmax ([3]; 500 mg): 124 ± 30 µM | fu, fraction unbound in plasma ([3]; 500 mg): 0.07 [53] | Cmax ([3]; 1000 mg): 244 ± 94 µM | fu, fraction unbound in plasma ([3]; 1000 mg): 0.11 [53] | Cmax ([3]; 2000 mg): 521 ± 166 µM | fu, fraction unbound in plasma ([3]; 2000 mg): 0.17 [53]

B1: OAT1 (Homo sapiens) (protein)
chain: MAFNDLLQQVGGVGRFQQIQVTLVVLPLLLMASHNTLQNFTAAIPTHHCRPPADANLSKNGGLEVWLPRDRQGQPESCLRFTSPQWGLPFLNGTEANGTGATEPCTDGWIYDNSTFPSTIVTEWDLVCSHRALRQLAQSLYMVGVLLGAMVFGYLADRLGRRKVLILNYLQTAVSGTCAAFAPNFPIYCAFRLLSGMALAGISLNCMTLNVEWMPIHTRACVGTLIGYVYSLGQFLLAGVAYAVPHWRHLQLLVSAPFFAFFIYSWFFIESARWHSSSGRLDLTLRALQRVARINGKREEGAKLSMEVLRASLQKELTMGKGQASAMELLRCPTLRHLFLCLSMLWFATSFAYYGLVMDLQGFGVSIYLIQVIFGAVDLPAKLVGFLVINSLGRRPAQMAALLLAGICILLNGVIPQDQSIVRTSLAVLGKGCLAASFNCIFLYTGELYPTMIRQTGMGMGSTMARVGSIVSPLVSMTAELYPSMPLFIYGAVPVAASAVTVLLPETLGQPLPDTVQDLESRWAPTQKEAGIYPRKGKQTRQQQEHQKYMVPLQASAQEKNGL
notes: expressed in transfected cells; host or cells: HEK293-Flp-In
Km [5]: 700 µM and 698 ± 192 µM
